What was measured:
RAW264.7 [1] = experiment: Cytotoxicity against LPS-induced mouse RAW 264.7 cells assessed as cell viability measured by MTT assay; format: cell-based
L02 [2] = experiment: Antiinflammatory activity against human L02 assessed as inhibition of LPS-induced NO production preincubated for 1 hrs followed by LPS stimulation and measured after 24 hrs by Griess assay relative to control; format: functional, cell-based
RAW264.7 [3] = experiment: Cytotoxicity against mouse RAW 264.7 cells assessed as cell viability by MTT assay; format: cell-based
[4] = target: T1, Nitric oxide synthase, inducible (Mus musculus, UniProt P29477); experiment: Inhibition of LPS induced NO-dependent iNOS activity in mouse RAW 264.7 cells preincubated for 1 hrs followed by LPS stimulation and measured after 24 hrs by Griess reagent based assay; format: cell-based, RAW264.7
T1 sequence (P29477 whole entry): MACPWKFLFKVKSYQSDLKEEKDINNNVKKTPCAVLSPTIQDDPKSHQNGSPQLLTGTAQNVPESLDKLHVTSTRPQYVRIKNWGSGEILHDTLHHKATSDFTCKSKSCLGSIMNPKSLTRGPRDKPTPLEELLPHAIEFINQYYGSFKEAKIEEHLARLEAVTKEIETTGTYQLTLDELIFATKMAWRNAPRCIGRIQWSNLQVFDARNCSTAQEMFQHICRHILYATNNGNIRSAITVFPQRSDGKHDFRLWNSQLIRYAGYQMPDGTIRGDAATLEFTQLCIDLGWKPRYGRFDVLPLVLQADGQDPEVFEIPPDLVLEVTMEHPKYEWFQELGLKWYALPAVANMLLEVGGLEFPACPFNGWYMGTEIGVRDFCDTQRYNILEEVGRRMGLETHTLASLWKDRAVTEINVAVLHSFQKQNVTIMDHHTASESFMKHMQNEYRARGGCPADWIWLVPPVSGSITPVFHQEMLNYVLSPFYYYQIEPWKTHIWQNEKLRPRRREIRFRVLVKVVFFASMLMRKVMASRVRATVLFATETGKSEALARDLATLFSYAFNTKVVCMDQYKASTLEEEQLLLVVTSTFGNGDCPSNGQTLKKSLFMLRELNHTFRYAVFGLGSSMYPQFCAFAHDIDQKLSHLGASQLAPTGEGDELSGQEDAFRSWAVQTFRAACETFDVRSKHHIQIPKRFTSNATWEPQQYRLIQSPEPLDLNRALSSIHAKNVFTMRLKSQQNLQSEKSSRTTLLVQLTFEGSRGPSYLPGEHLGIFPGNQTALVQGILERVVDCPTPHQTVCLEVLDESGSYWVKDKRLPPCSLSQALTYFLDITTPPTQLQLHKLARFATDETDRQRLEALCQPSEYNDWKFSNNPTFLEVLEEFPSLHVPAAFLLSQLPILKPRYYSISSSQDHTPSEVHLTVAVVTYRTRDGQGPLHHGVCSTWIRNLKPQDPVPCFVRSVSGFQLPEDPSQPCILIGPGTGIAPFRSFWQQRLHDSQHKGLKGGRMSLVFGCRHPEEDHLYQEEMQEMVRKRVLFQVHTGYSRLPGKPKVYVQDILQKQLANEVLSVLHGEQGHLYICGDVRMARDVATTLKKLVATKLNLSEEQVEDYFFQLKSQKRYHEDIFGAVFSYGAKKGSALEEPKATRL

L02 [5] = experiment: Cytotoxicity against human L02 cells assessed as cell viability by MTT assay; format: cell-based
RAW264.7 [6] = experiment: Inhibition of LPS-induced NO release in mouse RAW264.7 cells preincubated for 1 hrs followed by LPS stimulation and measured after 24 hrs by Griess reagent based assay; format: functional, cell-based
RAW264.7 [7] = experiment: Antiinflammatory activity against mouse RAW264.7 cells assessed as inhibition of LPS-induced NO production at 10 uM preincubated for 1 hrs followed by LPS stimulation and measured after 24 hrs by Griess assay relative to control; format: functional; settings: time 25 hrs
RAW264.7 [8] = experiment: Cytotoxicity against mouse RAW264.7 cells at 20 uM measured after 24 hrs; format: cell-based; settings: raw264.7, 24 h
[9] = Metabolic stability in human hepatocytes assessed as half life measured upto 120 mins by LC-MS/MS analysis; format: ADME, cell-based, Hepatocyte
[10] = Metabolic stability in rat hepatocytes assessed as half life measured upto 120 mins by LC-MS/MS analysis; format: ADME, cell-based, Hepatocyte
[11] = Metabolic stability in rat hepatocytes assessed as intrinsic clearance incubated up to 120 mins measured per million cells by LC-MS/MS analysis; format: ADME, cell-based, Hepatocyte; settings: read-out: CLH
[12] = Metabolic stability in human hepatocytes assessed as clearance incubated up to 120 mins measured per million cells by LC-MS/MS analysis; format: ADME, cell-based, Hepatocyte; settings: read-out: CLH
Cytochrome P450 1A2 = target: T2, Cytochrome P450 1A2 (Homo sapiens, UniProt P05177); experiment: Inhibition of CYP1A2 in human liver microsomes using Phenacetin as substrate measured after 20 mins by LC-MS/MS analysis; format: ADME
T2 sequence (P05177 whole entry): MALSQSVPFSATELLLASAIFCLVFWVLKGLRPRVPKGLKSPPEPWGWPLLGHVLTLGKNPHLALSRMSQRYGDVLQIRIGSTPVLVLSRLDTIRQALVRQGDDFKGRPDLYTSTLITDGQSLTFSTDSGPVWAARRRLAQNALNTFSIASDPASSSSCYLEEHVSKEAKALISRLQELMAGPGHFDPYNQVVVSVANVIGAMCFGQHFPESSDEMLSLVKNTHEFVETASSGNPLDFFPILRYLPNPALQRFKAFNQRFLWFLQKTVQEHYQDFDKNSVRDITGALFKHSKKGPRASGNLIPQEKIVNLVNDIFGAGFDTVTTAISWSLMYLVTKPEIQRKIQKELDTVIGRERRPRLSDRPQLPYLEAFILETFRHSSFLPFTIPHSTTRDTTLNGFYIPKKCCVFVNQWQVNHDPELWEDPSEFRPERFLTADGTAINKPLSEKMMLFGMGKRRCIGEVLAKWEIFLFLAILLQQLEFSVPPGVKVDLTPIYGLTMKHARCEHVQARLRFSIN

| Structure (SMILES) | IC50 (L02 [2]) | inhibition at 10 µM (RAW264.7 [7]) | Activity (RAW264.7 [8]) | other results |
| --- | --- | --- | --- | --- |
| COc1cc(/C=C/c2nc(NCc3ccncc3)c3sccc3n2)cc(OC)c1OC | 374 µM | 76% | Non-Toxic | IC50 (RAW264.7 [1]): > 50 µM; IC50 (RAW264.7 [3]): > 50 µM; IC50 [4]: 3.12 µM; IC50 (L02 [5]): 0.374 mM; IC50 (RAW264.7 [6]): 6.35 µM |
| COc1cc(/C=C/c2nc(Nc3ccc(C(F)(F)F)cc3)c3sccc3n2)cc(OC)c1OC | 436 µM | 55.4% | Non-Toxic | IC50 (RAW264.7 [1]): > 50 µM; IC50 (RAW264.7 [3]): > 50 µM; IC50 [4]: 4.2 µM; IC50 (L02 [5]): 0.436 mM; IC50 (RAW264.7 [6]): 9.36 µM |
| COc1cc(/C=C/c2nc(Nc3ccc(O)cc3)c3sccc3n2)cc(OC)c1OC | > 1000 µM | 97.7% | Non-Toxic | IC50 (RAW264.7 [1]): > 50 µM; IC50 (RAW264.7 [3]): > 50 µM; IC50 [4]: 1.89 µM; IC50 (L02 [5]): 2.3 mM; IC50 (RAW264.7 [6]): 4.07 µM |
| O=C(O)Cc1ccccc1Nc1c(Cl)cccc1Cl [DICLOFENAC] |  |  |  | half-life [9]: 9.1 min; half-life [10]: 13.6 min; hepatocyte CLint [11]: 50.3 µL/min/1e6 cells; hepatocyte CLint [12]: 75.8 µL/min/1e6 cells |
| COc1cc(/C=C/c2nc(NC3CC3)c3sccc3n2)cc(OC)c1OC | > 1000 µM | 90.7% | Non-Toxic | IC50 (RAW264.7 [1]): > 50 µM; IC50 (RAW264.7 [3]): > 50 µM; IC50 [4]: 4.32 µM; IC50 (L02 [5]): 2.36 mM; IC50 (RAW264.7 [6]): 6.03 µM |
| O=c1cc(-c2ccccc2)oc2ccc3ccccc3c12 [BETA-NAPHTHOFLAVONE] |  |  |  | IC50 (Cytochrome P450 1A2): 83.5 nM |
| Cc1ncc2n1-c1ccc(Cl)cc1C(c1ccccc1F)=NC2 [MIDAZOLAM] |  |  |  | half-life [9]: 16.3 min; half-life [10]: 3.9 min; hepatocyte CLint [11]: 176 µL/min/1e6 cells; hepatocyte CLint [12]: 42.6 µL/min/1e6 cells |
| COc1cc(/C=C/c2nc(NCc3ccc(Cl)cc3)c3sccc3n2)cc(OC)c1OC | > 1000 µM | 65.5% | Non-Toxic | IC50 (RAW264.7 [1]): > 50 µM; IC50 (RAW264.7 [3]): > 50 µM; IC50 [4]: 4.23 µM; IC50 (L02 [5]): 4.32 mM; IC50 (RAW264.7 [6]): 9.05 µM |
| CCOc1ccc(NC(C)=O)cc1 [PHENACETIN] |  |  |  | half-life [9]: 43.8 min; half-life [10]: 32.6 min; hepatocyte CLint [11]: 21.3 µL/min/1e6 cells; hepatocyte CLint [12]: 15.8 µL/min/1e6 cells |
| COc1cc(/C=C/c2nc(NCc3ccccc3)c3sccc3n2)cc(OC)c1OC | > 1000 µM | 71.9% | Non-Toxic | IC50 (RAW264.7 [1]): > 50 µM; IC50 (RAW264.7 [3]): > 50 µM; IC50 [4]: 3.62 µM; IC50 (L02 [5]): 1.8 mM; IC50 (RAW264.7 [6]): 8.26 µM |
| COc1ccc(CNc2nc(/C=C/c3cc(OC)c(OC)c(OC)c3)nc3ccsc23)cc1 | > 1000 µM | 73.7% | Non-Toxic | IC50 (RAW264.7 [1]): > 50 µM; IC50 (RAW264.7 [3]): > 50 µM; IC50 [4]: 3.26 µM; IC50 (L02 [5]): 2.05 mM; IC50 (RAW264.7 [6]): 7.54 µM |
| COc1ccc2c(c1)[C@]13CCCC[C@@H]1[C@H](C2)N(C)CC3 [DEXTROMETHORPHAN] |  |  |  | half-life [9]: 14.5 min; half-life [10]: 4.6 min; hepatocyte CLint [11]: 150 µL/min/1e6 cells; hepatocyte CLint [12]: 47.8 µL/min/1e6 cells |
| COc1cc(/C=C/c2nc(OCc3ccccc3)c3sccc3n2)cc(OC)c1OC | > 1000 µM | 33.8% | Non-Toxic |  |
| CCCc1nn(C)c2c(NC(C)C)nc(/C=C/c3ccc[n+]([O-])c3)nc12 | 324 µM | 45.8% | Non-Toxic |  |
| CCCc1nn(C)c2c(N3CCS(=O)(=O)CC3)nc(/C=C/c3nc(C)c(C)nc3C)nc12 | < 40 µM | 51.6% | Non-Toxic |  |
| CCCc1nn(C)c2c(NCc3ccc(F)cc3)nc(/C=C/c3cccnc3)nc12 | 940 µM | 61.3% | Non-Toxic |  |

| Structure (SMILES) | IC50 (L02 [2]) | inhibition at 10 µM (RAW264.7 [7]) | Activity (RAW264.7 [8]) | other results |
| --- | --- | --- | --- | --- |
| COc1cc(/C=C/c2nc(N(C)c3ccccc3)c3sccc3n2)cc(OC)c1OC | 767 µM | 32.5% | Non-Toxic |  |
| C[C@@H]1C[C@H]2[C@@H]3CCC4=CC(=O)C=C[C@]4(C)[C@@]3(F)[C@@H](O)C[C@]2(C)[C@@]1(O)C(=O)CO [DEXAMETHASONE] | 4620 µM | 51.8% |  | IC50 (RAW264.7 [1]): > 50 µM; IC50 (RAW264.7 [3]): > 50 µM; IC50 [4]: > 10 µM; IC50 (L02 [5]): 4.62 mM; IC50 (RAW264.7 [6]): 8.71 µM |
| CCCc1nn(C)c2c(NCCc3ccccc3)nc(CCc3cccnc3)nc12 | 783 µM | 36.5% | Non-Toxic |  |
| COc1cc(/C=C/c2nccc(NCCc3ccc(F)cc3)n2)cc(OC)c1OC | 544 µM | 47% | Non-Toxic |  |
| FC(F)(F)c1ccc(Nc2nc(/C=C/c3ccccc3)nc3ccsc23)cc1 | > 1000 µM | 30.1% | Non-Toxic |  |
| COc1cc(/C=C/c2nc(NC(C)C)c3sccc3n2)cc(OC)c1OC | > 1000 µM | 59.1% | Non-Toxic |  |
| COc1ccc(Nc2nc(/C=C/c3cc(OC)c(OC)c(OC)c3)nc3ccsc23)cc1 | 279 µM | 52.5% | Non-Toxic | IC50 (RAW264.7 [1]): > 50 µM; IC50 (RAW264.7 [3]): > 50 µM; IC50 [4]: 5.12 µM; IC50 (L02 [5]): 0.279 mM; IC50 (RAW264.7 [6]): 10.7 µM |
| CCCc1nn(C)c2c(N3CCS(=O)(=O)CC3)nc(CCc3cccnc3)nc12 | > 1000 µM | 15.6% | Non-Toxic |  |
| CCCc1nn(C)c2c(NC(C)C)nc(/C=C/c3nc(C)c(C)nc3C)nc12 | 342 µM | 54.8% | Non-Toxic |  |
| COc1cc(/C=C/c2nc(NCCc3ccc(F)cc3)c3sccc3n2)cc(OC)c1OC | < 40 µM | 26.9% | Non-Toxic |  |
| COc1cc(/C=C/c2nc(NCCc3ccccc3)c3sccc3n2)cc(OC)c1OC | < 40 µM | 46.2% | Non-Toxic |  |
| CCCc1nn(C)c2c(NCc3ccc(F)cc3)nc(CCc3cccnc3)nc12 | < 40 µM | 18.8% | Non-Toxic |  |
| COc1cc(/C=C/c2nc(Cl)cc(NCCc3ccc(F)cc3)n2)cc(OC)c1OC | < 40 µM | 55.9% | Non-Toxic |  |
| COc1ccc2[nH]c([S+]([O-])Cc3ncc(C)c(OC)c3C)nc2c1 (stereo not given) [OMEPRAZOLE] |  |  |  | half-life [9]: 28.2 min; half-life [10]: 13.5 min; hepatocyte CLint [11]: 51.4 µL/min/1e6 cells; hepatocyte CLint [12]: 24.6 µL/min/1e6 cells |
| CN(C)c1nc(/C=C/c2ccccc2)nc2ccsc12 | > 1000 µM | 3.57% | Non-Toxic |  |

Source: ChEMBL document CHEMBL4813945, “Discovery and development of novel pyrimidine and pyrazolo/thieno-fused pyrimidine derivatives as potent and orally active inducible nitric oxide synthase dimerization inhibitor with efficacy for arthritis” (Eur J Med Chem, 2021)
